In patent publication US10307407B2, “9H-pyrimido [4,5-B] indoles as BET bromodomain inhibitors” (THE REGENTS OF THE UNIVERSITY OF MICHIGAN, priority 2015, dated 2019) one finds IC50 data, which are given here for nine compounds.

One test concerns LNCaP cells. As to the kind of experiment: Cell growth inhibition, 4-day proliferation assay, LNCaP. The test is classed as cell-based. Conditions: Homo sapiens, 96 h, prostate cancer cell line, 4 days treatment. On the procedure:
(§1) The effect of representative Compounds of the Disclosure on cell viability was determined in a 4-day proliferation assay. Cells were maintained in the appropriate culture medium with 10% FBS at 37° C. and an atmosphere of 5% CO2. All the cell lines were used within three months of thawing fresh vials.
(§2) Cells were seeded in 96-well flat bottom (Corning COSTAR, Corning, NY, cat#3595) or white opaque cell culture plates (BD Falcon, cat#353296) at a density of 3,000-10,000 cells/well in 75 μl of culture medium. Compounds were serially diluted in the appropriate medium, and 75 μl of the diluted compounds were added to the appropriate wells of the cell plate. After the addition of compounds, the cells were incubated at 37° C. in an atmosphere of 5% CO2 for 4 days. Cell viability was determined using the CellTiter-Glo® Luminescent Cell Viability Assay Kit (Promega, Madison, Wis.) for RS4-11 and MV4-11 cells and WST (2-(2-methoxy-4-nitrophenyl)-3-(4-nitrophenyl)-5-(2,4-disulfophenyl)-2H-tetrazolium, monosodium salt) Cell Counting-8 Kit (Dojindo Molecular Technologies, Inc., Rockville, Md.) for MDA-MB-231 cells according to the manufacturers' instructions.
(§3) Cell growth inhibition of representative Compounds of the Disclosure in representative breast cancer (MDA-MB-231), acute leukemia (MV4-11), and prostate cancer cell lines (LNCaP), as determined by a WST assay, are presented in Table 3. Cells were treated with each inhibitor for 4 days.

In another test the target is T1, recombinant BRD4 BD2 (Homo sapiens, UniProt O60885).
T1 construct: recombinant BRD4 BD1 and BRD4 BD2 proteins
As to the kind of experiment: Competitive fluorescence-polarization (FP) binding assay, BRD4 BD2. The settings on record: FAM labeled probe 1.5 nM, protein 6 nM, pH 6.5. On the procedure: (§4) Fluorescence Polarization (FP) competitive binding studies were carried out using a FAM labeled fluorescent probe (ZBA248 or BRD-1F) to determine binding affinities of representative Compounds of the Disclosure for recombinant BRD4 BD1 and BRD4 BD2 proteins. For example, equilibrium dissociation constants (Kd) values of ZBA248 to these six proteins were determined from protein saturation experiments by monitoring the total fluorescence polarization of mixtures composed with the fluorescent probe at a fixed concentration and proteins with increasing concentrations up to full saturation. Serial dilutions of testing protein were mixed with ZBA248 to a final volume of 200 μl in the assay buffer. In order to achieve large dynamic rages, particularly for BD1 bromodomains, 100 mM phosphate buffer (pH=6.5, 0.01% Triton X-100 (Sigma, 282103) being added right before assays) was used as the assay buffer. Final ZBA248 concentration was 1.5 nM for all proteins. Plates were incubated at room temperature for 30 minutes with gentle shaking to assure equilibrium. FP values in millipolarization units (mP) were measured using the Infinite M-1000 plate reader (Tecan U.S., Research Triangle Park, N.C.) in Microfluor 1 96-well, black, round-bottom plates (Thermo Scientific, Waltham, Mass.) at an excitation wavelength of 485 nm and an emission wavelength of 530 nm. Kd values of ZBA248 were calculated by fitting the sigmoidal dose-dependent FP increases as a function of protein concentrations using Graphpad Prism 6.0 software (Graphpad Software, San Diego, Calif.).
(§5) The IC50 and Ki values of representative Compounds of the Disclosure were determined in a competitive binding experiment as described above. Mixtures of 10 μl of the tested compounds in assay buffer with 40% Ethylene Glycol and 190 μl of preincubated protein/probe complex solution in the assay buffer (100 mM potassium phosphate, pH 6.5, 0.01% Triton X-100) were added into assay plates which were incubated at room temperature for 30 minutes with gentle shaking. Final concentrations of proteins were 10 and 6 nM in assays for BD1 and BD2 of BRD4, respectively. Final probe concentration is 1.5 nM in all assays. Negative controls containing protein/probe complex only (equivalent to 0% inhibition), and positive controls containing only free probes (equivalent to 100% inhibition), were included in each assay plate. FP values were measured as described above. IC50 values were determined by nonlinear regression fitting of the competition curves. Instead of being calculated from IC50 values as described before, Ki values of competitive inhibitors were obtained directly by nonlinear regression fitting as well, based upon the Kd values of the probe to different proteins, and concentrations of the proteins and probes in the competitive assays (Wang, FEBS Lett. 360; 111 (1995); Zhang et al., Analytical Biochemistry, 331; 138 (2004)).
(§6) Binding affinities of representative Compounds of the Disclosure to BRD4 BD1 and BRD4 BD2 proteins in competitive, fluorescence-polarization assays are presented in Table 2.

Another test concerns MDA-MB-231 cells. Kind of test: Cell growth inhibition, 4-day proliferation assay (WST), MDA-MB-231. The test is classed as cell-based. Conditions: Homo sapiens, MDA-MB-231, 96 h, breast cancer cell line, 4 days treatment. On the procedure:
as §1, §2
For WST assay (MDA-MB-231 cells), WST-8 reagent was added to each well at a final concentration of 10% (v/v), and then the plates were incubated at 37° C. for 1-2 hours for color development. The absorbance was measured at 450 nm using a SPECTRAmax PLUS plate reader (Molecular Devices, Sunnyvale, Calif.). The readings were normalized to the DMSO-treated cells and the half maximal inhibitory concentration (IC50) was calculated by nonlinear regression (four parameters sigmoid fitted with variable slope, least squares fit, and no constraint) analysis using the GraphPad Prism 5 software (GraphPad Software, La Jolla, Calif.).
as §3

The target of another test is T2, recombinant BRD4 BD1 (Homo sapiens, UniProt O60885).
T2 construct: recombinant BRD4 BD1 and BRD4 BD2 proteins
As to the kind of experiment: Competitive fluorescence-polarization (FP) binding assay, BRD4 BD1. The settings on record: FAM labeled probe 1.5 nM, protein 10 nM, pH 6.5. On the procedure: as §4, §5, §6

The next test has as its system MV4-11 cells. As to the kind of experiment: Cell growth inhibition, 4-day proliferation assay, MV4-11. The test is classed as cell-based. Conditions: Homo sapiens, MV4-11, 96 h, acute leukemia cell line, 4 days treatment. The protocol:
as §1, §2
For CellTiter-Glo assay (RS4-11 and MV4-11 cells), 100 μl of CellTiter-Glo® Reagent was added to each well, and then the plates were incubated at room temperature for 10-20 minutes. The luminescent signal was measured using a Tecan Infinite M1000 multimode microplate reader (Tecan, Morrisville, N.C.). The readings were normalized to the DMSO-treated cells and the IC50 was calculated by nonlinear regression (four parameters sigmoid fitted with variable slope, least squares fit, and no constraint) analysis using the GraphPad Prism 5 software.
as §3

Molecules are shown by their SMILES.

As for `COc1cc2c(cc1-c1c(C)noc1C)[nH]c1nc(N)nc(Nc3cc(C4CC4)nn3C(C)C)c12` [Cpd. No. 2, N4-(3-cyclopropyl-1-isopropyl-1H-pyrazol-5-yl)-7-(3,5-dimethylisoxazol-4-yl)-6-methoxy-9H-pyrimido[4,5-b]indole-2,4-diamine], the concentration for half-maximal inhibition (IC50) came to 3 nM in the test with LNCaP cells, 2.1 nM at recombinant BRD4 BD2, 46 nM in the test on MDA-MB-231 cells and 1 nM at recombinant BRD4 BD1.
`COc1cc2c(cc1-c1c(C)noc1C)[nH]c1nc(N)nc(Nc3c4c(nn3C)CCC4)c12` [Cpd. No. 3, 7-(3,5-dimethylisoxazol-4-yl)-6-methoxy-N4-(2-methyl-2,4,5,6-tetrahydrocyclopenta[c]pyrazol-3-yl)-9H-pyrimido[4,5-b]indole-2,4-diamine]: the 50% inhibitory concentration (IC50) in the test with LNCaP cells came to 67 nM; on recombinant BRD4 BD2 it was 1.6 nM; with MDA-MB-231 cells, 18 nM; at recombinant BRD4 BD1, 3.5 nM.
Turning to `CCn1nc2c(c1Nc1nc(N)nc3[nH]c4cc(-c5c(C)noc5C)c(OC)cc4c13)CCC2` [Cpd. No. 4, 7-(3,5-dimethylisoxazol-4-yl)-N4-(2-ethyl-2,4,5,6-tetrahydrocyclopenta[c]pyrazol-3-yl)-6-methoxy-9H-pyrimido[4,5-b]indole-2,4-diamine], the IC50 in the test with LNCaP cells is 20 nM; at recombinant BRD4 BD2, 2.5 nM; in the test on MDA-MB-231 cells it was 6 nM; at recombinant BRD4 BD1 it was 1 nM.
`CCn1nc(C2CC2)cc1Nc1nc(COC)nc2[nH]c3cc(-c4c(C)noc4C)c(OC)cc3c12` [Cpd. No. 5, N-(3-cyclopropyl-1-ethyl-1H-pyrazol-5-yl)-7-(3,5-dimethylisoxazol-4-yl)-6-methoxy-2-(methoxymethyl)-9H-pyrimido[4,5-b]indol-4-amine]: the IC50 in the test on MV4-11 cells is 3 nM; in the test with LNCaP cells, 3 nM; at recombinant BRD4 BD2, 2.4 nM; in the test with MDA-MB-231 cells, 13 nM; at recombinant BRD4 BD1, 5.5 nM.
Consider `COCc1nc(Nc2c3c(nn2C(C)C)CCC3)c2c(n1)[nH]c1cc(-c3c(C)noc3C)c(OC)cc12` [Cpd. No. 6, 7-(3,5-dimethylisoxazol-4-yl)-N-(2-isopropyl-2,4,5,6-tetrahydrocyclopenta[c]pyrazol-3-yl)-6-methoxy-2-(methoxymethyl)-9H-pyrimido[4,5-b]indol-4-amine], for which the IC50 was 4 nM in the test on MV4-11 cells, 2.9 nM on recombinant BRD4 BD2, 6 nM with MDA-MB-231 cells and 3.6 nM at recombinant BRD4 BD1.
Turning to `COCc1nc(Nc2cc(C3CC3)nn2C(C)C)c2c(n1)[nH]c1cc(-c3c(C)noc3C)c(OC)cc12` [Cpd. No. 7, N-(3-cyclopropyl-1-isopropyl-1H-pyrazol-5-yl)-7-(3,5-dimethylisoxazol-4-yl)-6-methoxy-2-(methoxymethyl)-9H-pyrimido[4,5-b]indol-4-amine], the IC50 with MV4-11 cells turned out to be 3 nM; at recombinant BRD4 BD2 it was 2.1 nM; with MDA-MB-231 cells it was 6 nM; on recombinant BRD4 BD1 it was 3.9 nM.
On to `COc1cc2c(cc1-n1c(C)nnc1C)[nH]c1ncnc(Nc3cc(C4CC4)nn3C)c12` [Cpd. No. 8, N-(3-Cyclopropyl-1-methyl-1H-pyrazol-5-yl)-7-(3,5-dimethyl-4H-1,2,4-triazol-4-yl)-6-methoxy-9H-pyrimido[4,5-b]indol-4-amine], for which the IC50 at recombinant BRD4 BD2 is 1300 nM; in the test with MDA-MB-231 cells it was more than 1000 nM; at recombinant BRD4 BD1, 652 nM.
Turning to `COc1cc2c(cc1-c1c(C)noc1C)[nH]c1nc(C)nc(Nc3cc(C4CC4)nn3-c3ccncc3)c12` [Cpd. No. 9, N-(3-Cyclopropyl-1-(pyridin-4-yl)-1H-pyrazol-5-yl)-7-(3,5-dimethylisoxazol-4-yl)-6-methoxy-2-methyl-9H-pyrimido[4,5-b]indol-4-amine], the IC50 on recombinant BRD4 BD2 stood at 19 nM; in the test with MDA-MB-231 cells, 66 nM; on recombinant BRD4 BD1, 22.6 nM.
The corresponding values for `COc1cc2c(cc1-n1c(C)nnc1C)[nH]c1nc(C)nc(Nc3cc(C4CC4)nn3C)c12` [Cpd. No. 15, N-(3-cyclopropyl-1-methyl-1H-pyrazol-5-yl)-7-(3,5-dimethyl-4H-1,2,4-triazol-4-yl)-6-methoxy-2-methyl-9H-pyrimido[4,5-b]indol-4-amine] are 132 nM, 1400 nM and 131 nM.
